According to US7160684B2, “Methods of selecting compounds for modulation of bladder function” (Wyeth, priority 2000, dated 2007):

Legend:
[1] = system: isolated rat bladder strips; assay: Isolated rat bladder strip contraction; conditions: strips precontracted with 20 mM KCl; for antagonism of the effects of retigabine on bladder strip contractions: 10 μM antagonist
Protocol: Male Sprague-Dawley rats (200–400 grams) are euthanized by CO2 inhalation and exsanguination. Their urinary bladders are rapidly removed and placed in […] physiological salt solution (PSS) that contained the following (mM): NaCl (118.4), KCl (5), CaCl2 (2.5), MgSO4 (1.2), KH2PO4 (1.2), NaHCO3 (24.9) and D-glucose (11.1) gassed with O2/CO2 (95% /5%) to achieve a pH of 7.4. The dome of the bladder is isolated from the trigon region and this tissue is then cut into 4–5 mm wide by 10 mm long strips. One end is secured to the bottom of a water jacketed tissue bath and the other to a GRASS isometric force transducer (Grass Instruments, Quincy, Mass.). Tissues are pretensioned (0.25 to 0.5 grams), and after 30 minutes of equilibration are contracted with an additional 15 mM KCl (total of 20 mM) and again allowed to equilibrate until the preparations are contracting steadily. Any of a variety of compounds are administered directly into the tissue baths as sequential concentrations. Transducer signals are digitized (12 bit resolution) and analyzed on-line using a 586-based computer and custom software. The area under the contraction curve (AUC) is used as a measure of contractility since the spontaneous bladder contractions are irregular in amplitude and frequency. A 5-minute AUC value is taken 30 minutes after administration of each compound concentration to the tissue bath.
We isolated rat bladder strips from male Sprague-Dawley rats as previously described, (Wojdan, A., Freeden, C., Woods, M., Oshiro, G., Spinelli, W. et al., J Pharmacol Exp Therap 289: 1410–1418 (1999)) and precontracted them with 20 mM KCl. The KCNQ channel agonist retigabine, was added to the tissue bath in increasing concentrations, and area under the contraction curve was analyzed.
In another study, isolated rat bladder strips were precontracted with 60 mM KCl (FIG. 1).
The difference in IC50s between 20 and 60 mM KCl depolarizations are consistent with a potassium channel opening mechanism.
Rat bladder strips were isolated and prepared as previously described (Wojdan, A., Freeden, C., Woods, M., Oshiro, G., Spinelli, W. et al., J Pharmacol ExpTherap 289:1410–1418 (1999)). Preparations were contracted with either 20 or 60 mM KCl, or 200 nM carbachol. A five minute area under the contraction curve was acquired 20 minutes after addition of each concentration of retigabine using a 12 bit D/A and a 586 based personal computer running custom software. Message for KCNQ subunits was probed using quantitative rtPCR on an ABI PRISM 7700 Sequence Detection System (TAQMAN). Forward and reverse primers and TAQMAN probes were designed using published RNA sequences for human KCNQ1–5 and rat KCNQ 1–4 listed within the NCBI data base. Since no rat sequence for KCNQ5 were currently published, probes and primers were designed by BLAST analysis of rat Expressed Sequence Tags (EST) using the known mouse KNCQ5 sequence. From homologous EST sequences, a contiguous sequence of 384 base pairs was constructed. Probes and primers were designed against this sequence. BLAST analysis of our rat KCNQ5 probes and primer were selective for mouse and human KCNQ5 sequences. PCR products were confirmed by gel electrophoresis (data not shown). Cells for electrophysiology were prepared from rat bladder smooth muscle as previously described (Wojdan et al., 1999). Human bladder smooth muscle cells were obtained from Clonetics, San Diego, Calif. […]

[2] = system: isolated rat bladder smooth muscle cell; assay: Current clamp recording of resting membrane potential, rat cells; assay type: cell-based
Description: (§1) Rat detrusor cells are isolated in a manner previously described for guinea-pig detrusor (Sheldon J H, Norton N W and Argentieri T M (1997) Inhibition of guinea pig detrusor contraction by NS-1619 is associated with activation of BKCa and inhibition of calcium currents. J Pharmacol Exp Thera 283(3): 1193–1200). Male Sprague-Dawley rats (Charles River, Wilmington, Mass.; 200–400 grams) are euthanized by CO2 inhalation and exsanguination. Their urinary bladders are rapidly removed and placed in 37° C. physiological solution with the following composition (mM): Na glutamate (80.0), NaCl (54.7), KCl (5.0), NaHCO3 (25.0), MgCl2.2H2O (2.5), D-glucose (11.8) and CaCl2 (0.2) gassed with O2—CO2, 95%/5% for a final pH of 7.4. The dome of the bladder is isolated from the trigone region and the mucosa is removed. This tissue is then cut into 2–3 mm wide strips and placed into fresh buffer for 1 hour. Tissues are then transferred into 10 ml of an isolation buffer containing the above composition plus collagenase type VIII (1.0 mg/ml) and pronase (0.25 mg/ml). After 10 minutes the isolation buffer is replaced with fresh isolation buffer for an additional 10 min. The tissue is then washed 3 times in fresh collagenase and pronase free solution and stored at room temperature until studied. Cells for study are prepared by triturating 1–2 pieces of detrusor tissue in 2 ml of fresh isolation buffer for 5 minutes with a polished Pasteur pipette, (tip diameter ˜1.5 mm) attached to a modified Harvard Respirator pump (Harvard Apparatus, Southnatic, Mass.) at a rate of 20×/min. with an approximate volume of 5 ml. Cells are then placed on a microscope stage in a temperature regulated tissue bath at 32.5° C. and continually superfused with PSS.
(§2) Single cell recordings are performed with a List-Medical EPC-7 patch clamp amplifier (Adams & List Assoc., Westbury, N.Y.). Pipette electrodes had tip resistances of 2–4 MΩ and are filled with the following composition (mM): KCl (126.0), MgCl2.6H2O (4.5), ATP Mg salt (4.0), GTP tris salt (0.3), creatine PO4 (14.0), D-glucose (9.0), EGTA (9.0), HEPES (9.0). The pH is adjusted to 7.4 with KOH. Signals are acquired (3 kHz high frequency cut-off, 12 bit resolution) using a 586-based personal computer.
Cell resting membrane potential (RMP) is measured in current clamp using the above mentioned instrumentation and pipette solutions. For these experiments nystatin is also added to the pipette solution (100 μg/ml) to allow recording through utilization of the perforated patch technique (Korn, et al, 1991). […] After this time, various antagonists (linopirdine, XE-991) are added to the perfusate and RMP is recorded for an additional 5 minutes. […]

[3] = system: isolated rat bladder smooth muscle cell; assay: Voltage clamp recording of outward current, rat cells; assay type: cell-based
Description: as §1, §2
Whole cell recordings are made using broken patch access. Currents are evoked using either voltage steps (Vh=−50; Vt=−60 to 40 mV) or voltage ramps (−60 to 40 mV at 3.3 mV/sec.). The exact voltage clamp protocols are well known in the art. After stability is achieved control currents are recorded. Next, test compound is added to the superfusate. Currents are recorded for 5 to 10 minutes or until compound effects reach steady state. This is followed either by washout or addition of antagonists (linopirdine, XE-991) to the superfusate. […]

[4] = system: cultured human bladder smooth muscle cells; assay: Voltage clamp recording of outward current, human cells; assay type: cell-based; conditions: XE-991 (10 μM in FIG. 3d)
Protocol: as §2
Whole cell recordings are made using broken patch access. Currents are evoked using either voltage steps (Vh=−50; Vt=−60 to 40 mV) or voltage ramps (−60 to 40 mV at 3.3 mV/sec.). The exact voltage clamp protocols are well known in the art. After stability is achieved control currents are recorded. Next, test compound is added to the superfusate. Currents are recorded for 5 to 10 minutes or until compound effects reach steady state. This is followed either by washout or addition of antagonists (linopirdine, XE-991) to the superfusate.
Cellular electrophysiological studies were conducted using both voltage and current clamp techniques (Hammill, O., P., Marty, A., Neher, E., Sakmann, B. & Sigworth, F. J.: Improved patch-clamp techniques for high-resolution current recordings from cells and cell-free membrane patches. Pflugers Arch 391: 85–100 (1981)) from Sprague-Dawley rat (200–400 grams) bladders as previously described, (Wojdan, A., Freeden, C., Woods, M., Oshiro, G., Spinelli, W. et al., J. Pharmacol Exp Therap 289: 1410–1418 (1999)) and from a human bladder, primary cell culture (Colnetics, San Diego, Calif.). In rat cells, the average, control resting membrane potential (RMP) was −29.0±4.5 mV. […]
Rat bladder strips were isolated and prepared as previously described (Wojdan, A., Freeden, C., Woods, M., Oshiro, G., Spinelli, W. et al., J Pharmacol ExpTherap 289:1410–1418 (1999)). […] Message for KCNQ subunits was probed using quantitative rtPCR on an ABI PRISM 7700 Sequence Detection System (TAQMAN). […]

## O=C1c2ccccc2C(Cc2ccncc2)(Cc2ccncc2)c2ccccc21 [XE-991, 10,10-bis(4-pyridinylmethyl)-9(10H)-anthracenone]
[1]
  antagonism of the effects of retigabine on bladder strip contractions: 94.8±17.5%
[2]; 10 μM XE-991 after 10 μM retigabine
  reversal of retigabine-induced hyperpolarization: completely reversed
[2]; 10 μM XE-991 after retigabine
  effect on membrane potential relative to initial RMP: depolarized the cell below its initial RMP
[3]; XE-991 10 μM
  reversal of retigabine-induced increase in outward current: partially reversed
[4]
  reversal of retigabine-induced changes (hyperpolarization, outward current): partially reversed

## COc1ccc(Cl)cc1C(=O)NCCc1ccc(S(=O)(=O)NC(=O)NC2CCCCC2)cc1 [glyburide]
[1]; glyburide 10 μM
  reversal of the effects of retigabine on bladder strip contractions: not reversed

## O=C1N(c2ccccc2)c2ccccc2C1(Cc1ccncc1)Cc1ccncc1 [linopirdine]
[1]
  antagonism of the effects of retigabine on bladder strip contractions: 94.8±17.5%
[3]; linopirdine 50 μM
  reversal of retigabine-induced increase in outward current: partially reversed

## iberiotoxin (QFTDVDCSVSKECWSVCKDLFGVDRGKCMGKKCRCYQ; UniProt P24663 1-37, looked up)
[3]; 100 nM iberiotoxin
  sensitivity of retigabine-induced increase in outward current to blocker: not sensitive
